According to US20260216196A1, “IMIDAZO[1,2-A]PYRIDINE AND IMIDAZO[1,2-A]PYRAZINE DERIVATIVES AS MLLT1 AND MLLT3 INHIBITORS” (DARK BLUE THERAPEUTICS LTD., priority 2022, published 2026):
Read-outs that look alike come from different tables or passages of the source.

How the values were obtained:
[1] = target: MLLT3 (Homo sapiens, UniProt P42568); test: HTRF IC50 determination assay, MLLT3 / H3K9cro peptide displacement
[2] = target: T1, MLLT1 (Homo sapiens, UniProt Q03111); settings: read-out: MLLT1 assay IC50; HTRF, 6His tagged MLLT1, biotinylated H3K9cro peptide; compound 20 μM to 20 nM, 11 data points in duplicate
T1 sequence (Q03111 whole entry): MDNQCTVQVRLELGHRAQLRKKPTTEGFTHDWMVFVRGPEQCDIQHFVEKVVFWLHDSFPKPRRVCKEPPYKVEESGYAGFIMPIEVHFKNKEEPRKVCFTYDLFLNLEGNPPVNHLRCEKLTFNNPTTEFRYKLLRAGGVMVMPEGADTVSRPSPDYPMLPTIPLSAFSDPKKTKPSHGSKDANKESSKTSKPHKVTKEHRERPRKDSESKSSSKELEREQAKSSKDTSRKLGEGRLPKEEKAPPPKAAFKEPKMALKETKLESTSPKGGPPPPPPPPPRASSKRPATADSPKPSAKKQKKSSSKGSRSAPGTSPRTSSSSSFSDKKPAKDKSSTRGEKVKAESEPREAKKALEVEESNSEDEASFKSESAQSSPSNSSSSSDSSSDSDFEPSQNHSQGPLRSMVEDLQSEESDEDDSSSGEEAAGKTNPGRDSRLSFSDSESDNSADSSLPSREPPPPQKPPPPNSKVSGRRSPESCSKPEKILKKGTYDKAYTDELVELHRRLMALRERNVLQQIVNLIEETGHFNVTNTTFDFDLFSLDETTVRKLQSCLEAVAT

[3] = target: T1, MLLT1; test: biochemical; settings: MLLT1 assay IC50 (nM), HTRF, 6His tagged MLLT1, biotinylated H3K9cro peptide; compound 20 μM to 20 nM, 11 data points in duplicate
[4] = read-out: MLLT3 assay IC50, 6His tagged MLLT3, biotinylated H3K9cro peptide, compound 20 μM to 20 nM, 11 data points in duplicate
[5] = MLLT3 assay IC50 (nM), 6His tagged MLLT3, biotinylated H3K9cro peptide, compound 20 μM to 20 nM, 11 data points in duplicate

Chain of MLLT3 (P42568 whole entry): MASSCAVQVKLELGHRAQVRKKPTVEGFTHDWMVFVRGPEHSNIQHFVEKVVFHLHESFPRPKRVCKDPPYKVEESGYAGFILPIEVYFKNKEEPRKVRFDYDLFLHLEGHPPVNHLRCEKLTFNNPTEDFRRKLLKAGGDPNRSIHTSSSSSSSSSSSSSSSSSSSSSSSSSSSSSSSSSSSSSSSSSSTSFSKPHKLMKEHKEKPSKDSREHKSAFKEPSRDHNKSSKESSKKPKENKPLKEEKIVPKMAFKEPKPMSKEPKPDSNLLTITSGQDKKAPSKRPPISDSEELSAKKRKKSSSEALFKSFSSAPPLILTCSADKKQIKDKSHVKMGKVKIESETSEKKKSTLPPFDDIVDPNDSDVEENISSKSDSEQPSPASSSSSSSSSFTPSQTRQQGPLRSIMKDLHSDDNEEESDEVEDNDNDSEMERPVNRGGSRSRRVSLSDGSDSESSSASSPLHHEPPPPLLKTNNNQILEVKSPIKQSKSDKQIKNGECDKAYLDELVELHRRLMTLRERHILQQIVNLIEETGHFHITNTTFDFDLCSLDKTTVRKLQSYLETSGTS

Question: What does the source list for `CO[C@@H]1C[C@@H](c2cn3cc(NC(=O)c4ccc5c(cnn5C)c4)ncc3n2)N(C)C1` (stereo in doubt) [Example 104, N-{2-[(rel-2S,4R)-4-methoxy-1-methylpyrrolidin-2-yl]imidazo[1,2-a]pyrazin-6-yl}-1-methylindazole-5-carboxamide]?
Answer: IC50 [1, 4]: 1500 to 20000 nM; IC50 [2]: 0.15 to 1.5 µM

Question: With `CO[C@H]1C[C@@H](c2cn3cc(NC(=O)c4ccc5c(cnn5C)c4)ncc3n2)N(C)C1` (stereo in doubt) [Example 86, N-{2-[(rel-2S,4S)-4-methoxy-1-methylpyrrolidin-2-yl]imidazo[1,2-a]pyrazin-6-yl}-1-methylindazole-5-carboxamide] as the compound, how does the IC50 [1, 4] read?
Answer: 1500 to 20000 nM

Question: And the IC50 [2]?
Answer: 0.15 to 1.5 µM

Question: With `CO[C@@H]1C[C@H](c2cn3cc(NC(=O)c4ccc5c(cnn5C)c4)ncc3n2)N(C)C1` (stereo in doubt) [Example 103, N-{2-[(rel-2R,4R)-4-methoxy-1-methylpyrrolidin-2-yl]imidazo[1,2-a]pyrazin-6-yl}-1-methylindazole-5-carboxamide] as the compound, how does the IC50 [1, 4] read?
Answer: 150 to 1500 nM

Question: And the IC50 [2]?
Answer: 0.15 to 1.5 µM

Question: Which results are given for `C[C@H]1C[C@H](c2cn3cc(NC(=O)c4ccc5c(cnn5C)c4)ncc3n2)N(C)C1` (relative stereo) [Example 89, N-(2-((2R, rel-4S)-1,4-dimethylpyrrolidin-2-yl)imidazo[1,2-a]pyrazin-6-yl)-1-methyl-1H-indazole-5-carboxamide]?
Answer: IC50 [1, 4]: 150 to 1500 nM; IC50 [2]: 0.15 to 1.5 µM

Question: Which results are given for `C[C@@H]1C[C@H](c2cn3cc(NC(=O)c4ccc5c(cnn5C)c4)ncc3n2)N(C)C1` (relative stereo) [Example 90, N-(2-((2R, rel-4R)-1,4-dimethylpyrrolidin-2-yl)imidazo[1,2-a]pyrazin-6-yl)-1-methyl-1H-indazole-5-carboxamide]?
Answer: IC50 [1, 4]: 150 to 1500 nM; IC50 [2]: < 0.15 µM

Question: Which IC50 [1, 5] does the source give for `COc1cc2c(cnn2C)cc1C(=O)Nc1cn2cc([C@H]3CCCN3C)nc2cn1` [Example 96, 6-methoxy-1-methyl-N-{2-[(2R)-1-methylpyrrolidin-2-yl]imidazo[1,2-a]pyrazin-6-yl}indazole-5-carboxamide] here?
Answer: 1500 to 20000 nM

Question: What about the IC50 [3] of the same compound?
Answer: 150 to 1500 nM

Question: With `CN1CCCCC1c1cn2cc(NC(=O)c3ccc4c(cnn4C)c3)ccc2n1` (single isomer, unassigned) [Example 27] as the compound, how does the IC50 [1, 5] read?
Answer: > 20000 nM

Question: And the IC50 [3]?
Answer: 1500 to 20000 nM

Question: How did the IC50 [1, 5] turn out when `Cc1nn(C)c2cc(C(=O)Nc3ccc4nc(C5CCCN5C)cn4c3)c(F)cc12` (racemic) [Example 30, rac-5-fluoro-1,3-dimethyl-N-[2-(1-methylpyrrolidin-2-yl)imidazo[1,2-a]pyridin-6-yllindazole-6-carboxamide] was run?
Answer: 150 to 1500 nM

Question: What about the IC50 [3] of the same compound?
Answer: 150 to 1500 nM

Question: Which IC50 [1, 5] does the source give for `COc1ccc(-c2nc(C(=O)Nc3ccc4nc(C5CCCN5C)cn4c3)cs2)cc1` (racemic) [Example 38, rac-2-(4-methoxyphenyl)-N-[2-(1-methylpyrrolidin-2-yl)imidazo[1,2-a]pyridin-6-yl]-1,3-thiazole-4-carboxamide] here?
Answer: 1500 to 20000 nM

Question: What about the IC50 [3] of the same compound?
Answer: 1500 to 20000 nM

Question: What does the source list for `CN1CCCCC1c1cn2cc(NC(=O)c3ccc4c(cnn4C)c3)ccc2n1` (single isomer, unassigned) [Example 28]?
Answer: IC50 [1, 5]: 150 to 1500 nM; IC50 [3]: 150 to 1500 nM

Question: How did the IC50 [1, 5] turn out when `Cc1nn(C)c2cc(C(=O)Nc3cn4cc([C@H]5CCCN5C)nc4c(C4CC4)n3)c(F)cc12` [Example 100, N-[8-cyclopropyl-2-[(2R)-1-methylpyrrolidin-2-yl]imidazo[1,2-a]pyrazin-6-yl]-5-fluoro-1,3-dimethyl-indazole-6-carboxamide] was run?
Answer: 150 to 1500 nM

Question: What about the IC50 [3] of the same compound?
Answer: 150 to 1500 nM

Question: How did the IC50 [1, 5] turn out when `Cc1nn(C)c2cc(C(=O)Nc3ccc4nc(C5CCCN5C)cn4c3)ccc12` (racemic) [Example 14, rac-1,3-dimethyl-N-[2-(1-methylpyrrolidin-2-yl)imidazo[1,2-a]pyridin-6-yl]-1H-indazole-6-carboxamide] was run?
Answer: 150 to 1500 nM

Question: What about the IC50 [3] of the same compound?
Answer: 150 to 1500 nM

Question: How did the IC50 [1, 5] turn out when `Cc1ncsc1-c1ccc(C(=O)Nc2ccc3nc(C4CCCN4C)cn3c2)c(F)c1` (single isomer, unassigned) [Example 22] was run?
Answer: 1500 to 20000 nM

Question: And the IC50 [3]?
Answer: 150 to 1500 nM

Question: `CC1CC(c2cn3cc(NC(=O)c4ccc5c(cnn5C)c4)ccc3n2)N(C)C1` (racemic) [Example 64, rac-N-[2-(1,4-dimethylpyrrolidin-2-yl)imidazo[1,2-a]pyridin-6-yl]-1-methyl-1H-indazole-5-carboxamide] was tested. Which IC50 [1, 5] did it give?
Answer: 150 to 1500 nM

Question: What about the IC50 [3] of the same compound?
Answer: 150 to 1500 nM

Question: How did the IC50 [1, 5] turn out when `Cc1nc2ccc(C(=O)Nc3ccc4nc(C5CCCN5C)cn4c3)cc2nc1C` (racemic) [Example 11, rac-2,3-dimethyl-N-[2-(1-methylpyrrolidin-2-yl)imidazo[1,2-a]pyridin-6-yl]quinoxaline-6-carboxamide] was run?
Answer: 150 to 1500 nM

Question: And the IC50 [3]?
Answer: 150 to 1500 nM

Question: With `CO[C@H]1C[C@H](c2cn3cc(NC(=O)c4ccc5c(cnn5C)c4)ncc3n2)N(C)C1` (stereo in doubt) [Example 85, N-{2-[(rel-2R,4S)-4-methoxy-1-methylpyrrolidin-2-yl]imidazo[1,2-a]pyrazin-6-yl}-1-methylindazole-5-carboxamide] as the compound, how does the IC50 [1, 4] read?
Answer: 150 to 1500 nM

Question: What about the IC50 [2] of the same compound?
Answer: 0.15 to 1.5 µM
